Assays:
[1] = tested on: Male C57Bl/6J mice; experiment: Marble burying test; format: in vivo; design: key: −: No reduction in number of marbles buried; +: Significant reduction in number of marbles buried (P < 0.05 vs vehicle); conditions: 1 mg/kg (i.p.)
Experimental: The marble burying assay is used to evaluate the anxiolytic activity of a test compound. After placement in a novel cage containing glass marbles, mice will bury the marbles. Acute administration of anxiolytic agents, as well as antidepressants, decrease this activity at non-sedating doses. Male C57Bl/6J mice from Jackson Laboratories were used in this study and were acclimatized to the experimental room for at least 1 hour prior to testing. Mice (n=10 per group) were administered sterile water or test compound intraperitoneally (i.p.) or orally by gavage (p.o.), or the positive control chlordiazepoxide (15 mg/kg, i.p.), in 10 mL/kg injection volumes, and returned to their home cages for a 30-minute pretreatment period. The mice were then placed individually in clean cages, containing hard wood bedding and twenty black marbles placed in spaced rows of 4×5. After a 30-minute test session, the number of buried marbles was counted. A marble was considered buried if it was pushed at least two thirds into the bedding. Locomotor activity was monitored by measuring the distance traveled using an overhead camera and Video Tracker Software (ViewPoint Life Sciences Software, France). A reduction in the number of marbles buried relative to the vehicle condition indicates an anxiolytic drug-like effect.

[2] = tested on: extracellular concentrations of neurotransmitters (DA, 5-HT, NE, ACh) in the prefrontal cortex (PFC); experiment: In vivo microdialysis of the prefrontal cortex; design: key: −: No change in extracellular concentration (P < 0.05 vs vehicle); +: Significant increase in extracellular concentration (P < 0.05 vs vehicle); conditions: mice
Description: (§1) In vivo microdialysis is a biological sampling technique used to evaluate the extracellular concentrations of neurotransmitters in specific brain regions following administration of a test compound to animals. Dysfunctions of brain neurotransmitter systems, such as dopamine (DA), norepinephrine (NE), serotonin (5-HT) and/or acetylcholine (ACh), have been linked to cognitive deficits (e.g., memory impairment, inattention, etc.), which may be observed in human aging, Alzheimer's disease (AD) and Attention Deficit Hyperactivity Disorder (ADHD). Drugs that increase extracellular concentrations of DA, NE, 5-HT and/or ACh in the prefrontal cortex (PFC), such as donepezil and methylphenidate, can reverse cognitive deficits in humans and animals.
(§2) Adult male C57Bl/6 mice (n=6 per group) from Jackson Laboratories were anesthetized using isoflurane (2%, 800 mL/min O2). Bupivacaine/epinephrine was used for local anesthesia and carprofen was used for peri-/post-operative analgesia. The animals were placed in a stereotaxic frame (Kopf instruments, USA) and I-shaped microdialysis probes (polyacrylonitril membrane, BrainLink, the Netherlands) were inserted into the PFC (2 mm exposed membrane; coordinates for the tips of the probes: posterior (AP)=+2.0 mm to bregma, lateral (L)=−0.5 mm to midline and ventral (V)=−3.3 mm to dura, the toothbar set at 0.0 mm) and the NAcc (coordinates for the tips of the probes: posterior (AP)=+0.8 mm to bregma, lateral (L)=+0.9 mm to midline and ventral (V)=−4.2 mm to dura, the toothbar set at 0.0 mm (Paxinos and Franklin, 2001)). After surgery, animals were housed individually in cages and provided food and water ad libitum. In vivo microdialysis experiments were performed one day after surgery. On the day of the experiment, the microdialysis probes were connected with flexible PEEK tubing to a microperfusion pump (Harvard PHD 2000 Syringe pump, Holliston, Mass. or similar). Microdialysis probes were perfused with artificial cerebrospinal fluid (aCSF) containing 147 mM NaCl, 3.0 mM KCl, 1.2 mM CaCl2 and 1.2 mM MgCl2, at a flow rate of […]. Microdialysis samples were collected for 30 minute periods by an automated fraction collector (820 Microsampler, Univentor, Malta or similar) into polystyrene mini-vials already containing 15 μL of 0.02 M formic acid (FA) and 0.04% ascorbic acid in ultrapurified H2O. Four basal samples were collected before the administration of vehicle or test compound (i.p., 5 mL/kg injection volumes). Samples were collected for an additional 240 min following vehicle or compound administration. All the dialysis samples were stored at −80° C. awaiting analysis. After the experiment, the mice were sacrificed and brain tissue was collected for probe verification. Each dialysis sample was analyzed for concentrations of DA, NE, 5-HT and ACh as determined by HPLC with tandem mass spectrometry (MS/MS) detection using labeled isotopes of the analytes of interest as internal standards. Data was expressed as a percentage of basal output, calculated by dividing each post-dose time point with the average basal output=100%. An increase in the post-dose percent basal output of DA, NE, 5-HT and/or ACh in the PFC relative to the vehicle condition indicates a potential cognition-enhancing drug-like response. Graphical representations of the observed changes in neurotransmitter concentrations are shown in the indicated Figures.

[3] = tested on: male Sprague-Dawley rats; experiment: Stress induced hyperthermia (SIH) assay; format: in vivo; design: key: −: No change in Delta T ([…]T); +: Significant decrease in Delta T ([…]T) (P < 0.05 vs vehicle)
Description: Stress-induced hyperthermia (SIH), mediated by the autonomic nervous system, is well known to occur prior to and during exposure to stress and/or anxiety-inducing situations. In many human anxiety disorders, it occurs as an integral part of the pathology and is often considered a representative symptom of the disease, e.g. in generalized anxiety disorder as defined in DSM-IV. In rodents, acute administration of anxiolytic drugs, such as buspirone or chlordiazepoxide (CDP), are known to reduce the SIH response to stressors such as handling, noise, heat, novelty, or pain. The test involves two measures of rectal temperature repeated in the same animal with a 10-minute interval. On the day prior to testing, male Sprague-Dawley rats from Envigo (n=10 per group) were brought to the experimental room approximately one hour before scheduled lights out and singly housed overnight with food and water ad libitum. On the morning of the experiment, animals were first injected with either vehicle or test compound orally by gavage, or CDP (10 mg/kg, i.p.). One hour following injection, each animal was removed from the holding cage and held in a supine position while the rectal temperature was measured by slowly inserting a rectal probe into the animal's rectum at a length of approximately 0.5 cm. The rectal probe was attached to a PhysiTemp digital thermometer (Fisher Scientific) which provides temperature readings at 0.1° C. accuracy. The probe remained inside the animal for approximately 5 seconds or until body temperature reaches stability. This temperature was recorded as the baseline rectal temperature (T1). The animal was immediately placed back to the holding cage and after a 10-min interval the second rectal temperature (T2) was taken using the same procedure as in measuring T1. Before each insertion, the rectal probe was cleaned with an alcohol pad and lubricated with sterile K-Y jelly. All SIH studies were conducted between 8:00-11:00 a.m. The SIH response was calculated as the difference in temperature between the second and first temperature reading (Delta T, […]T). A reduction in […]T relative to the vehicle condition indicates an anxiolytic drug-like response.

[4] = tested on: extracellular concentrations of neurotransmitters (DA, 5-HT, NE, ACh) in the nucleus accumbens (NAcc); experiment: In vivo microdialysis of the nucleus accumbens; design: key: −: No change in extracellular concentration (P < 0.05 vs vehicle); +: Significant increase in extracellular concentration (P < 0.05 vs vehicle); conditions: mice
Description: as §1, §2

SMILES	Marbles Buried [1]	PFC [5-HT] (FIG. 2) ([2]; 10 mg/kg IP)	PFC [ACh] (FIG. 4) ([2]; 10 mg/kg IP)	PFC [DA] (FIG. 1) ([2]; 10 mg/kg IP)	PFC [NE] (FIG. 3) ([2]; 10 mg/kg IP)	Delta T ([…]T) ([3]; 0.3 mg/kg PO)	NAcc [5-HT] (FIG. 6) ([4]; 10 mg/kg IP)	NAcc [ACh] (FIG. 8) ([4]; 10 mg/kg IP)	NAcc [DA] (FIG. 5) ([4]; 10 mg/kg IP)	NAcc [NE] (FIG. 7) ([4]; 10 mg/kg IP)	PFC [5-HT] (FIG. 2) ([2]; 30 mg/kg IP)	PFC [ACh] (FIG. 4) ([2]; 30 mg/kg IP)	PFC [DA] (FIG. 1) ([2]; 30 mg/kg IP)	PFC [NE] (FIG. 3) ([2]; 30 mg/kg IP)	Delta T ([…]T) ([3]; 3 mg/kg PO)	NAcc [5-HT] (FIG. 6) ([4]; 30 mg/kg IP)	NAcc [ACh] (FIG. 8) ([4]; 30 mg/kg IP)	NAcc [DA] (FIG. 5) ([4]; 30 mg/kg IP)	NAcc [NE] (FIG. 7) ([4]; 30 mg/kg IP)	Delta T ([…]T) ([3]; 1 mg/kg PO)
C[C@@H]1OCc2ccccc2[C@H]1N (single isomer, unassigned) [Compound 152]	−	+	+	+	+	−	+	−	−	+										
Cc1cccc2c1[C@@H](N)[C@@H](C)OC2 (single isomer, unassigned) [Compound 170]	−										−	−	+	+	−	−	−	−	+	
Cc1ccc2c(c1)[C@H](N)[C@H](C)OC2 [Compound 157]	−										+	−	+	+		−	−	−	+	−

— patent US11077090B2, “Compounds and compositions and uses thereof” (Sunovion Pharmaceuticals Inc., priority 2016, dated 2021)
